Assay results: patent publication US20260226068A1, “IMIDAZOTRIAZINE IL-17A MODULATORS AND USES THEREOF” (DICE ALPHA, INC., priority 2023, published 2026)

Experiments:
[1] = biological target: T1, IL-17A/F (Homo sapiens, UniProt Q16552+Q96PD4); assay: IL-17A/F HEK-Blue cell assay (SEAP reporter); format: cell-based; settings: HEK-Blue IL-17A reporter cells, IL17A/F 5 ng/mL, 20 hours, SEAP read at A630; read-out: HEK-Blue IL17AF (IC50 for IL-17A/F inhibition)
T1 construct: purchased R&D Systems
T1 sequence (Q16552 24-155): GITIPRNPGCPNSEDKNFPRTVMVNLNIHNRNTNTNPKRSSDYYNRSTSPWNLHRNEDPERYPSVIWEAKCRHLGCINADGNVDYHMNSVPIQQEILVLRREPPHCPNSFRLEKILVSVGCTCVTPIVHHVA
T1 sequence (Q96PD4 31-163): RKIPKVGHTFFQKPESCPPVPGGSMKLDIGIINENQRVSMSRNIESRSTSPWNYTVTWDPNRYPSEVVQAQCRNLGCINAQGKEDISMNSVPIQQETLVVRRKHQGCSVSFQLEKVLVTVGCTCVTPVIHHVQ
Procedure: (§1) The HEK-Blue IL-17A reporter cell line (Fisher #NC 1408637) was used for cell-based IL-17A/A inhibition assays. Cells were grown and prepared for assays according to the manufacturer's instructions. This cell line consists of HEK 293 cells that were designed to expressed IL-17RA, IL-17RC, and the Act1 adapter molecule, the combination of which, when stimulated by IL-17A/A or IL17A/F activates a […] promoter and drives expression of the recombinant Secreted Alkaline Phosphatase (SEAP) gene. Media from the cells is then added to a development reagent (Quanti-Blue Substrate, Fisher #NC971 1613), and read at A630.
(§2) Compounds were dispensed in DMSO to an empty clear 384-well tissue culture plate in a titration ranging from 10 μM to 27 pM, with DMSO added to every well to a final concentration of […]. Cells were then added to the plate (45 μL/well at a concentration of 280,000 cells/mL). IL17A/A (Genscript #Z03228) or IL17A/F (R&D Systems) was added to the plate to a final concentration of 5 ng/mL and a final well volume of 50 μL. The cells, compound, and IL-17A/A or IL17A/F were then incubated for 20 hours before media was removed for SEAP analysis. The resulting inhibition curve was then analyzed using Dotmatics' integrated 4-parameter fit screening protocol to generate IC50 values.
(§3) Table 2 includes IC50 values for IL-17A/A and IL-17A/F inhibition of selected compounds; with compounds having a IC50 of A<100 nM; B 100-1000 nM; and C>1000 nM.

[2] = biological target: T2, IL-17A/A (Homo sapiens, UniProt Q16552); assay: IL-17A/A HEK-Blue cell assay (SEAP reporter); format: cell-based; settings: HEK-Blue IL-17A reporter cells, IL17A/A 5 ng/mL, 20 hours, SEAP read at A630; read-out: HEK-Blue IL17AA (IC50 for IL-17A/A inhibition)
T2 construct: purchased Genscript Z03228
T2 sequence (Q16552 24-155): T1 sequence (Q16552 24-155)
Procedure: as §1, §2, §3

SMILES | IC50 [1] [nM] | IC50 [2] [nM]
CCn1nccc1C(=O)N[C@H](c1cn2nc(CC3C[C@@H](C(F)(F)F)CNC3=O)c(N3C[C@@H]4C[C@H]3CO4)nc2n1)C1CCC(F)(F)CC1 (single isomer, unassigned) [Compound 98] | < 100 | < 100
CCn1nccc1C(=O)N[C@H](c1cn2nc(CC3C[C@@H](C(F)(F)F)CNC3=O)c(N3C[C@@H]4C[C@H]3CO4)nc2n1)C1CCC(F)(F)CC1 (single isomer, unassigned) [Compound 99] | > 1000 | < 100
CC(C)n1nccc1C(=O)N[C@H](c1cn2nc(CC3C[C@@H](C(F)(F)F)CNC3=O)c(N3CCOCC3)nc2n1)[C@H]1CC[C@H](C)CC1 (single isomer, unassigned) [Compound 100] | < 100 | < 100
CCn1nccc1C(=O)N[C@H](c1cn2nc(CC3C[C@@H](C(F)(F)F)CNC3=O)c(N3CC4CCC(C3)O4)nc2n1)[C@H]1CC[C@H](C)CC1 (single isomer, unassigned) [Compound 104] | < 100 | < 100
CCn1nccc1C(=O)N[C@H](c1cn2nc(CC3C[C@@H](C(F)(F)F)CNC3=O)c(N3CC4CCC(C3)O4)nc2n1)[C@H]1CC[C@H](C)CC1 (single isomer, unassigned) [Compound 105] | 100 to 1000 | < 100
CCn1nccc1C(=O)N[C@H](c1cn2nc(CC3C[C@@H](C(F)(F)F)CNC3=O)c(N3C[C@H]4C[C@@H]3CO4)nc2n1)[C@H]1CC[C@H](C)CC1 (single isomer, unassigned) [Compound 106] | > 1000 | < 100
CCn1nccc1C(=O)N[C@H](c1cn2nc(CC3C[C@@H](C(F)(F)F)CNC3=O)c(N3C[C@H]4C[C@@H]3CO4)nc2n1)[C@H]1CC[C@H](C)CC1 (single isomer, unassigned) [Compound 107] | 100 to 1000 | < 100
CCn1nccc1C(=O)N[C@H](c1cn2nc(CC3C[C@@H](C(F)(F)F)CNC3=O)c(N3C[C@@H]4C[C@H]3CO4)nc2n1)[C@H]1CC[C@H](C)CC1 (single isomer, unassigned) [Compound 108] | < 100 | < 100
CCn1nccc1C(=O)N[C@H](c1cn2nc(CC3C[C@@H](C(F)(F)F)CNC3=O)c(N3C[C@@H]4C[C@H]3CO4)nc2n1)[C@H]1CC[C@H](C)CC1 (single isomer, unassigned) [Compound 109] | 100 to 1000 | < 100
CCn1nccc1C(=O)N[C@H](c1cn2nc(CC3C[C@@H](C(F)(F)F)CNC3=O)c(N3CCOCC3)nc2n1)C(C1CC1)C1CC1 (single isomer, unassigned) [Compound 111] | 100 to 1000 | < 100
CCn1nccc1C(=O)N[C@H](c1cn2nc(CC3C[C@@H](C(F)(F)F)CNC3=O)c(N3CCOCC3)nc2n1)C(C1CC1)C1CC1 (single isomer, unassigned) [Compound 112] | 100 to 1000 | < 100
O=C(N[C@H](c1cn2nc(CC3C[C@@H](C(F)(F)F)CNC3=O)c(N3CCOCC3)nc2n1)C1CCC(F)(F)CC1)c1conc1C1CC1(F)F (single isomer, unassigned) [Compound 113] | 100 to 1000 | < 100
O=C(N[C@H](c1cn2nc(CC3C[C@@H](C(F)(F)F)CNC3=O)c(N3CCOCC3)nc2n1)C1CCC(F)(F)CC1)c1conc1C1CC1(F)F (single isomer, unassigned) [Compound 114] | > 1000 | < 100
O=C(N[C@H](c1cn2nc(CC3C[C@@H](C(F)(F)F)CNC3=O)c(N3CCOCC3)nc2n1)C1CCC(F)(F)CC1)c1conc1C1CC1(F)F (single isomer, unassigned) [Compound 115] | > 1000 | < 100
O=C(N[C@H](c1cn2nc(CC3C[C@@H](C(F)(F)F)CNC3=O)c(N3CCOCC3)nc2n1)C1CCC(F)(F)CC1)c1conc1C1CC1(F)F (single isomer, unassigned) [Compound 116] | > 1000 | < 100
C[C@H]1CC[C@H]([C@H](NC(=O)C2(F)CC2)c2cn3nc(CC4C[C@@H](C(F)(F)F)CNC4=O)c(N4CCOCC4)nc3n2)CC1 (single isomer, unassigned) [Compound 118] | > 1000 | 100 to 1000
C[C@H]1CC[C@H]([C@H](NC(=O)C2(F)CC2)c2cn3nc(CC4C[C@@H](C(F)(F)F)CNC4=O)c(N4CCOCC4)nc3n2)CC1 (single isomer, unassigned) [Compound 120] | > 1000 | 100 to 1000
O=C(N[C@H](c1cn2nc(C[C@H]3C[C@@H](C(F)(F)F)CNC3=O)c(C3CCCOC3)nc2n1)[C@H]1CCCC(F)(F)C1)c1nonc1C1CC1 (single isomer, unassigned) [Compound 125] | > 1000 | < 100
O=C(N[C@H](c1cn2nc(C[C@H]3C[C@@H](C(F)(F)F)CNC3=O)c(C3CCCOC3)nc2n1)[C@H]1CCCC(F)(F)C1)c1nonc1C1CC1 (single isomer, unassigned) [Compound 126] | 100 to 1000 | < 100

Further lines, results first:

IC50 [1] [nM] | IC50 [2] [nM] | SMILES
100 to 1000 | < 100 | CCn1nccc1C(=O)N[C@H](c1cn2nc(CC3C[C@@H](C(F)(F)F)CNC3=O)c(N3CCOCC3)nc2n1)[C@@H]1CCCC(F)(F)C1 (single isomer, unassigned) [Compound 94]
100 to 1000 | < 100 | CCn1nccc1C(=O)N[C@H](c1cn2nc(CC3C[C@@H](C(F)(F)F)CNC3=O)c(N3CCOCC3)nc2n1)[C@@H]1CCCC(F)(F)C1 (single isomer, unassigned) [Compound 95]
100 to 1000 | < 100 | CCn1nccc1C(=O)N[C@H](c1cn2nc(CC3C[C@@H](C(F)(F)F)CNC3=O)c(N3CC4CC(C3)O4)nc2n1)[C@@H]1CCCC(F)(F)C1 (single isomer, unassigned) [Compound 96]
> 1000 | < 100 | CCn1nccc1C(=O)N[C@H](c1cn2nc(CC3C[C@@H](C(F)(F)F)CNC3=O)c(N3CC4CC(C3)O4)nc2n1)[C@@H]1CCCC(F)(F)C1 (single isomer, unassigned) [Compound 97]
100 to 1000 | < 100 | CC(C)n1nccc1C(=O)N[C@H](c1cn2nc(CC3C[C@@H](C(F)(F)F)CNC3=O)c(N3CCOCC3)nc2n1)[C@H]1CC[C@H](C)CC1 (single isomer, unassigned) [Compound 101]
< 100 | < 100 | CCn1nccc1C(=O)N[C@H](c1cn2nc(CC3C[C@@H](C(F)(F)F)CNC3=O)c(N3CC4CC(C3)O4)nc2n1)[C@H]1CC[C@H](C)CC1 (single isomer, unassigned) [Compound 102]
100 to 1000 | < 100 | CCn1nccc1C(=O)N[C@H](c1cn2nc(CC3C[C@@H](C(F)(F)F)CNC3=O)c(N3CC4CC(C3)O4)nc2n1)[C@H]1CC[C@H](C)CC1 (single isomer, unassigned) [Compound 103]
100 to 1000 | < 100 | CCn1nccc1C(=O)N[C@H](c1cn2nc(CC3C[C@@H](C(F)(F)F)CNC3=O)c(N3CCO[C@H](C)C3)nc2n1)[C@@H]1CCCC(F)(F)C1 (single isomer, unassigned) [Compound 124]
100 to 1000 | < 100 | CC(C)n1nccc1C(=O)N[C@H](c1cn2nc(CC3C[C@@H](C(F)(F)F)CNC3=O)c(N3CC4CC(C3)O4)nc2n1)[C@H]1CCCC(F)(F)C1 (single isomer, unassigned) [Compound 128]
100 to 1000 | < 100 | CC(C)n1nccc1C(=O)N[C@H](c1cn2nc(CC3C[C@@H](C(F)(F)F)CNC3=O)c(N3CC4CC(C3)O4)nc2n1)[C@@H]1CCCC(F)(F)C1 (single isomer, unassigned) [Compound 129]
> 1000 | < 100 | CC(C)n1nccc1C(=O)N[C@H](c1cn2nc(CC3C[C@@H](C(F)(F)F)CNC3=O)c(N3CC4CC(C3)O4)nc2n1)[C@H]1CCCC(F)(F)C1 (single isomer, unassigned) [Compound 130]
> 1000 | < 100 | CC(C)n1nccc1C(=O)N[C@H](c1cn2nc(CC3C[C@@H](C(F)(F)F)CNC3=O)c(N3CC4CC(C3)O4)nc2n1)[C@@H]1CCCC(F)(F)C1 (single isomer, unassigned) [Compound 131]
100 to 1000 | < 100 | CC(C)n1nccc1C(=O)N[C@H](c1cn2nc(C[C@H]3C[C@@H](C(F)(F)F)CNC3=O)c(C3CCOC3)nc2n1)C1CCC(F)(F)CC1 (single isomer, unassigned) [Compound 132]
